According to publication PMC7926793, “Synthesis and Biological Evaluation of 1-(Diarylmethyl)-1H-1,2,4-triazoles and 1-(Diarylmethyl)-1H-imidazoles as a Novel Class of Anti-Mitotic Agent for Activity in Breast Cancer” (Pharmaceuticals, 2021):

Key:
[1] = system: purified bovine brain tubulin; experiment: tubulin polymerisation assay; format: biochemical; details: 10 μM
Protocol: The assembly of purified bovine tubulin was monitored using a kit, BK006, purchased from Cytoskeleton Inc. (Denver, CO, USA). […] Light is scattered proportionally to the concentration of polymerised microtubules in the assay. Therefore, tubulin assembly was monitored turbidimetrically at 340 nm in a Spectramax 340 PC spectrophotometer (Molecular Devices, Sunnyvale, CA, USA). The absorbance was measured at 30 s intervals for 60 min.

MDA-MB-231 cells = experiment: Annexin V/PI apoptotic assay; format: cell-based, human; details: 48 h
Protocol: (§1) Apoptotic cell death was detected by flow cytometry using Annexin V and propidium iodide (PI). MCF-7 and MDA-MB-231 cells were seeded in 6-well plates at a density of 1 × 10^5 cells/mL (3 mL) and treated with either vehicle (0.1% (v/v) EtOH), Phenstatin (7a), or 21l at different concentrations for the selected time. Then, cells were harvested and prepared for flow cytometric analysis. […] Then, cells were washed once in binding buffer and then re-suspended in PI-containing binding buffer (1:1000). […] Four populations are produced during the assay: Annexin V and PI negative (Q4, healthy cells), Annexin V positive and PI negative (Q3, early apoptosis), Annexin V and PI positive (Q2, late apoptosis), and Annexin V negative and PI positive (Q1, necrosis).

MCF-7 cells = experiment: Annexin V/PI apoptotic assay; format: cell-based, human; details: 48 h
Protocol: as §1

[2] = system: tubulin (microtubule network) in MCF-7 cells; experiment: immunofluorescence confocal microscopy of microtubule network; format: cell-based, human; details: 10 μM, 16 h
Protocol: Confocal microscopy was used to study the effects of drug treatment on MCF-7 cytoskeleton. For immunofluorescence, MCF-7 cells were seeded at 1 × 10^5 cells/mL on eight chamber glass slides (BD Biosciences). […] Following treatment, cells were gently washed in PBS, fixed for 20 min with 4% paraformaldehyde in PBS, and permeabilised in 0.5% Triton X-100. Following washes in PBS containing 0.1% Tween (PBST), cells were blocked in 5% bovine serum albumin diluted in PBST. […] Following washes in PBST, the cells were mounted in Ultra Cruz Mounting Media (Santa Cruz Biotechnology, Santa Cruz, CA) containing 4,6-diamino-2-phenolindol dihydrochloride (DAPI). Images were captured by Leica SP8 confocal microscopy with Leica application suite X software. All images in each experiment were collected on the same day using identical parameters. Experiments were performed on three independent occasions.

HL-60 leukaemia cells = experiment: cell viability assay; format: cell-based; details: Homo sapiens, read-out: Antiproliferative Activity HL-60 Cells IC50
Protocol: The human breast carcinoma cell line MCF-7 was purchased from the European Collection of Animal Cell Cultures (ECACC) and cultured in Eagles minimum essential medium with 10% foetal bovine serum, 2 mM L-glutamine, and 100 μg/mL penicillin/streptomycin. The medium was supplemented with 1% non-essential amino acids. The human breast carcinoma cell line MDA-MB-231 was purchased from the ECACC. MDA-MB-231 cells were maintained in Dulbecco’s modified Eagle’s medium (DMEM) supplemented with 10% (v/v) foetal bovine serum, 2 mM L-glutamine, and 100 μg/mL penicillin/streptomycin (complete medium). HL-60 cells were derived from a patient with acute myeloid leukaemia and were obtained from the ECACC (Salisbury, UK). Cells were cultured in RPMI-1640 Glutamax medium supplemented with 10% FCS media and 100 μg/mL penicillin/streptomycin. MCF-10A cells were obtained as a kind gift from Dr Susan McDonnell, School of Chemical and Bioprocess Engineering, University College Dublin and were cultured in Dulbecco’s Modified Eagle Medium: Nutrient Mixture F-12 (DMEM/F12; Gibco) supplemented with 5% horse serum (Invitrogen), 20 ng mL^−1 epidermal growth factor (Merck Millipore), 0.5 μg mL^−1 hydrocortisone (Sigma,-Aldrich, Arklow, Co. Wicklow, Ireland), 100 ng mL^−1 cholera toxin (Sigma, Aldrich, Arklow, Co. Wicklow, Ireland), 10 μg mL^−1 insulin (Sigma, Aldrich, Arklow, Co. Wicklow, Ireland), and penicillin/streptomycin 5000 U mL^−1 (1%)(Gibco, Biosciences, 3 Charlemont Terrace, Crofton Road, Dun Laoghaire, Co Dublin, A96 K7H7, Ireland). […]
Cells were seeded at a density of 2.5 × 10^4 cells/well (MCF-7, MDA-MB-231, MCF-10A cells) and 1 × 10^4 cells/well (HL-60) in 96-well plates (200 μL per well). […] Cell proliferation for MCF-7, MDA-MB-231, and MCF-10A cells was analysed using the alamarBlue assay (Invitrogen Corp.) according to the manufacturer’s instructions. […] Fluorescence was read using a 96-well fluorimeter with excitation at 530 nm and emission at 590 nm. Results were expressed as percentage viability relative to vehicle control (100%).

Question: Which results are given for `COc1ccc(C(c2cc(OC)c(OC)c(OC)c2)n2ccnc2)cc1O` (stereo not shown) [21l, 5-((1H-Imidazol-1-yl)(3,4,5-Trimethoxyphenyl)Methyl)-2-Methoxyphenol]?
Answer: effect on tubulin polymerisation and assembly [1]: significant inhibition of tubulin polymerisation; fold reduction of the polymer mass compared to the vehicle [1]: 1.34 fold; Vmax value of tubulin polymerisation ([1]; 60 min): 2.84 ± 0.10 mOD/min; viability at 0.1 µM (MDA-MB-231 cells; Homo sapiens, MDA-MB-231, 0.1 μM, Figure 9B, read-out: Viable): 95.3%; viability at 0.5 µM (MDA-MB-231 cells; Homo sapiens, MDA-MB-231, 0.5 μM, Figure 9B, read-out: Viable): 93.1%; viability at 1 µM (MDA-MB-231 cells; Homo sapiens, MDA-MB-231, 1 μM, Figure 9B): 91.5%; total apoptotic cells (MDA-MB-231 cells; MDA-MB-231, 0.1 μM): 3.6%; total apoptotic cells (MDA-MB-231 cells; MDA-MB-231, 0.5 μM): 5.9%; total apoptotic cells (MDA-MB-231 cells; MDA-MB-231, 1.0 μM): 6.9%; viability at 0.1 µM (MCF-7 cells; Homo sapiens, MCF7, MCF-7, 0.1 μM, Figure 9A, read-out: Viable): 85.4%; viability at 0.5 µM (MCF-7 cells; Homo sapiens, MCF7, MCF-7, 0.5 μM, Figure 9A, read-out: Viable): 81.9%; viability at 1 µM (MCF-7 cells; Homo sapiens, MCF7, MCF-7, 1 μM, Figure 9A): 79.4%; Annexin V-stained positive cells (total apoptotic cells) (MCF-7 cells; MCF-7, 0.1 μM): 14.1%; Annexin V-stained positive cells (total apoptotic cells) (MCF-7 cells; MCF-7, 0.5 μM): 17.5%; Annexin V-stained positive cells (total apoptotic cells) (MCF-7 cells; MCF-7, 1 μM): 19.3%; effect on microtubule network of MCF-7 cells [2]: disorganised microtubule networks; IC50 (HL-60 leukaemia cells): 156 ± 52 nM

Question: How did the IC50 (HL-60 leukaemia cells) turn out when `COc1ccc(C(c2cc(OC)c(OC)c(OC)c2)n2nccn2)cc1O` (stereo not shown) [compound 24] was run?
Answer: 173 ± 55 nM

Question: For `COc1ccc(C(c2cc(OC)c(OC)c(OC)c2)n2cncn2)cc1O` (stereo not shown) [19e, 5-((1H-1,2,4-Triazol-1-yl)(3,4,5-Trimethoxyphenyl)methyl)-2-Methoxyphenol], which “effect on microtubule network of MCF-7 cells” value [2] is on record?
Answer: disorganised microtubule networks
